Measured values reported in patent US7399775B2, “β-amyloid protein production/secretion inhibitor” (Daiichi Pharmaceutical Co., Ltd., priority 2001, dated 2008).

Q: For `O=C(O)c1ccc(C(c2cc(F)ccc2F)S(=O)(=O)c2ccc(Cl)cc2)nc1` (centres unmarked) [Example 338, [6-[(4-Chlorophenylsulfonyl)-(2,5-difluorophenyl)methyl]pyridin-3-yl]carboxylic Acid], which melting point is on record?
A: > 230 °C

Q: For `CS(=O)(=O)CCCCC(c1cncs1)S(=O)(=O)c1ccc(Cl)cc1` (centres unmarked) [Example 114, 5-[1-[(4-Chlorophenyl)sulfonyl]-5-(methylsulfonyl)pentyl]thiazole], which melting point is on record?
A: 95 to 96 °C

Q: For `O=S(=O)(c1ccc(Cl)cc1)C(c1nccs1)c1cc(F)ccc1F` (centres unmarked) [Example 152, 2-[[(4-Chlorophenyl)sulfonyl]-(2,5-difluorophenyl)methyl]thiazole], which melting point is on record?
A: 163 to 164 °C

Q: For `O=S(=O)(c1ccc(Cl)cc1)C1(c2cc(F)ccc2F)CCSCC1` [Example 251, 4-[(4-Chlorophenyl)sulfonyl]-4-(2,5-difluorophenyl)tetrahydrothiopyran], which melting point is on record?
A: 188 to 190 °C

Q: With `Cl.O=S(=O)(c1ccc(Cl)cc1)C(CCCCN1CCCC1)c1cc(F)ccc1F` (centres unmarked) as the compound, how does the melting point read?
A: 167 to 170.5 °C

Q: For `CS(=O)(=O)NCCCC(c1cc(F)ccc1F)S(=O)(=O)c1ccc(Cl)cc1` (centres unmarked) [Example 230, N-[4-[(4-Chlorophenyl)sulfonyl]-4-(2,5-difluorophenyl)butyl]methanesulfonamide], which melting point is on record?
A: 128 °C

Q: Which melting point does the source give for `CCCC(O)C(c1cc(F)ccc1F)S(=O)(=O)c1ccc(Cl)cc1` (centres unmarked) [Example 11, 1-[(4-Chlorophenyl)sulfonyl]-1-(2,5-difluorophenyl)-2-pentanol] here?
A: 76.5 to 78 °C

Q: For `O=S(=O)(c1ccc(Cl)cc1)C1(c2cc(F)ccc2F)Cc2ccccc2C1` [Example 278, 2-[(4-Chlorophenyl)sulfonyl]-2-(2,5-difluorophenyl)indane], which melting point is on record?
A: 209 to 210 °C (dec.)

Q: For `CS(=O)(=O)CCCCC(c1ccc(F)cc1Cl)S(=O)(=O)c1ccc(Cl)cc1` (centres unmarked) [Example 68, 2-Chloro-1-[1-[(4-chlorophenyl)sulfonyl]-5-(methylsulfonyl)pentyl]-4-fluorobenzene], which melting point is on record?
A: 124 to 125 °C

Q: With `CS(=O)(=O)CCCCC(c1cccc(F)c1F)S(=O)(=O)c1ccc(Cl)cc1` (centres unmarked) [Example 77, 1-[1-(4-Chlorophenylsulfonyl)-5-(methylsulfonyl)pentyl]-2,3-difluorobenzene] as the compound, how does the melting point read?
A: 141 to 143 °C

Q: With `O=S(=O)(c1ccc(Cl)cc1)C(c1cc(F)ccc1F)C(O)CCCCO` (centres unmarked) [Example 236, 6-[(4-Chlorophenyl)sulfonyl]-6-(2,5-difluorophenyl)-1,5-hexanediol] as the compound, how does the melting point read?
A: 105 to 107 °C

Q: For `CS(=O)(=O)CCCCC(c1c(F)cccc1F)S(=O)(=O)c1ccc(Cl)cc1` (centres unmarked) [Example 81, 2-[1-(4-Chlorophenylsulfonyl)-5-(methylsulfonyl)pentyl]-1,3-difluorobenzene], which melting point is on record?
A: 118 to 119 °C

Q: Which melting point does the source give for `O=C(O)CC(c1cc(F)ccc1F)S(=O)(=O)c1ccc(Cl)cc1` (centres unmarked) [Example 62, 3-[(4-Chlorophenyl)sulfonyl]-3-(2,5-difluorophenyl)propionic Acid] here?
A: 152 to 153 °C

Q: For `O=S(=O)(c1ccc(Cl)cc1)C1(c2nnn(Cc3ccccc3)n2)CCCCC1` [Example 197, 2-Benzyl-5-[1-(4-chlorobenzenesulfonyl)cyclohexyl]-2H-tetrazole], which melting point is on record?
A: 133 to 134 °C

Q: Which melting point does the source give for `CC(=O)N1CCC(c2cc(F)ccc2F)(S(=O)(=O)c2ccc(Cl)cc2)CC1` [Example 263, 1-[4-[(4-Chlorophenyl)sulfonyl]-4-(2,5-difluorophenyl)piperidino]-1-ethanone] here?
A: 159 to 160 °C

Q: For `Cc1ccc(CCC(c2cc(F)ccc2F)S(=O)(=O)c2ccc(Cl)cc2)cc1` (centres unmarked) [Example 307, 2-[1-(4-Chlorophenylsulfonyl)-3-(4-methylphenyl)propyl]-1,4-difluorobenzene], which melting point is on record?
A: 82 to 84 °C

Q: With `C=CCOc1cccnc1C(c1cc(F)ccc1F)S(=O)(=O)c1ccc(Cl)cc1` (centres unmarked) [Example 140, 3-Allyloxy-2-[[(4-chlorophenyl)sulfonyl]-(2,5-difluorophenyl)methyl]pyridine] as the compound, how does the melting point read?
A: 119 to 120 °C

Q: Which melting point does the source give for `O=S(=O)(c1ccc(Cl)cc1)C(C/C=C/CO)c1cc(F)ccc1F` (centres unmarked) [Example 248, (E)-5-[(4-Chlorophenyl)sulfonyl]-5-(2,5-difluorophenyl)-2-penten-1-ol] here?
A: 108 to 109 °C

Q: With `O=S(=O)(c1ccc(Cl)cc1)C(CCC1CCCC1)c1cc(F)ccc1F` (centres unmarked) [Example 315, 2-[1-(4-Chlorophenylsulfonyl)-3-cyclopentylpropyl]-1,4-difluorobenzene] as the compound, how does the melting point read?
A: 93 to 94 °C

Q: For `CN(C)C(=O)N1CCC(c2cc(F)ccc2F)(S(=O)(=O)c2ccc(Cl)cc2)CC1` [Example 268, N,N-dimethyl-4-[(4-chlorophenyl)sulfonyl]-4-(2,5-difluorophenyl)-1-piperidinecarboxamide], which melting point is on record?
A: 143 to 146 °C

Q: With `O=S(=O)(c1ccc(Cl)cc1)C1(c2cc(F)ccc2F)CCCCCC1` [Example 275] as the compound, how does the melting point read?
A: 101 to 103 °C

Q: Which melting point does the source give for `O=S(=O)(c1ccc(Cl)cc1)C(CCN1CCOCC1)c1cc(F)ccc1F` (centres unmarked) [Example 298, 4-[3-[(4-Chlorophenyl)sulfonyl]-3-(2,5-difluorophenyl)propyl]morpholine] here?
A: 149 to 151 °C

Q: For `CC(C)(C)OC(=O)N1CCC(C(c2cc(F)ccc2F)S(=O)(=O)c2ccc(Cl)cc2)CC1` (centres unmarked) [Example 290, t-Butyl 4-[[(4-chlorophenyl)sulfonyl](2,5-difluorophenyl)methyl]-1-piperidinecarboxylate], which melting point is on record?
A: 193 to 196 °C

Q: Which melting point does the source give for `CC(CCCO)C(c1cc(F)ccc1F)S(=O)(=O)c1ccc(Cl)cc1` (centres unmarked) [Example 40, 5-[(4-Chlorophenyl)sulfonyl]-5-(2,5-difluorophenyl)-4-methyl-1-pentanol] here?
A: 67 to 69 °C

Q: Which melting point does the source give for `O=S(=O)(c1ccc(Cl)cc1)C(c1ccc(CN2CCOCC2)cn1)c1cc(F)ccc1F` (centres unmarked) [Example 337, 4-[[6-[(4-Chlorophenylsulfonyl)-(2,5-difluorophenyl)methyl]pyridin-3-yl]methyl]morpholine] here?
A: 120 to 121 °C

Q: With `CN(C)CCC(c1ccncc1)S(=O)(=O)c1ccc(Cl)cc1` (centres unmarked) [Example 126, 3-(4-Chlorophenylsulfonyl)-N,N-dimethyl-3-(pyridin-4-yl)propylamine] as the compound, how does the melting point read?
A: 91 to 92 °C

Q: Which melting point does the source give for `COc1ccc(CCC(c2cc(F)ccc2F)S(=O)(=O)c2ccc(Cl)cc2)cc1` (centres unmarked) [Example 308, 2-[1-(4-Chlorophenylsulfonyl)-3-(4-methoxyphenyl)propyl]-1,4-difluorobenzene] here?
A: 118 to 120 °C

Q: With `O=C(OCCC(c1cc(F)ccc1F)S(=O)(=O)c1ccc(Cl)cc1)N1CCOCC1` (centres unmarked) [Example 211, 3-[(4-Chlorophenyl)sulfonyl]-3-(2,5-difluorophenyl)propyl=4-morpholinecarboxylate] as the compound, how does the melting point read?
A: 140 to 141 °C

Q: For `CS(=O)(=O)CCCCC(c1ccccc1)S(=O)(=O)c1ccc(Cl)cc1` (centres unmarked) [Example 51, 1-Chloro-4-(5-methylsulfonyl-1-phenylpentyl)sulfonylbenzene], which melting point is on record?
A: 151 to 152 °C

Q: For `Fc1ccc(F)c(C(Sc2ccc(Cl)cc2)c2ccncc2Cl)c1` (centres unmarked) [Example 341, 3-Chloro-4-[(4-chlorophenylthio)-(2,5-difluorophenyl)methyl]pyridine], which melting point is on record?
A: 70 to 72 °C

Q: For `O=S(=O)(Cc1ccccc1)c1ccc(Cl)cc1` [Example 50, 1-Chloro-4-(benzylsulfonyl)benzene], which melting point is on record?
A: 147.5 to 148.5 °C

Q: For `Cl.O=S(=O)(c1ccc(Cl)cc1)C(CCNCCO)c1cc(F)ccc1F` (centres unmarked), which melting point is on record?
A: 216 to 220 °C
